Consider 17 compounds from patent publication US7989438B2, “Therapeutic compounds” (Istituto di Ricerche di Biologia Molecolare P. Angeletti SpA, priority 2007, dated 2011).

The term IC50 denotes the concentration at which inhibition is half-maximal.

Like-named read-outs stand apart in the source and are kept apart here.

The subject of this assay is HCV subgenomic replication. The assay can be described thus: Cell based HCV replication assay (subgenomic replicon in Huh-7 cells, NS3 Cell-ELISA). Particulars: Table A, activity ranges, Huh-7 replicon cells, 96 hours, read-out: IC50 (nM), Inhibition of HCV subgenomic replication. From the text:
Cell clones that stably maintain subgenomic HCV replicon were obtained by transfecting Huh-7 cells with an RNA replicon identical to I377neo/NS3-3′/wt described by Lohmann et al. (1999) (EMBL-genbank No. AJ242652), followed by selection with neomycin sulfate (G418). Viral replication was monitored by measuring the expression of the NS3 protein by an ELISA assay performed directly on cells grown in 96 wells microtiter plates (Cell-ELISA) using the anti-NS3 monoclonal antibody 10E5/24 (as described in published International application WO 02/59321). Cells were seeded into 96 well plates at a density of 10^4 cells per well in a final volume of 0.1 ml of DMEM/10% FCS. Two hours after plating, 50 μl of DMEM/10% FCS containing a 3× concentration of inhibitor were added, cells were incubated for 96 hours and then fixed for 10 minutes with ice-cold isopropanol. Each condition was tested in duplicate and average absorbance values were used for calculations. The cells were washed twice with PBS, blocked with 5% non-fat dry milk in PBS+0.1% Triton X100+0.02% SDS (PBSTS) and then incubated o/n at 4° C. with the 10E5/24 mab diluted in Milk/PBSTS. After washing 5 times with PBSTS, the cells were incubated for 3 hours at room temperature with Fc specific anti-mouse IgG conjugated to alkaline phosphatase (Sigma), diluted in Milk/PBSTS. After washing again as above, the reaction was developed with p-Nitrophenyl phosphate disodium substrate (Sigma) and the absorbance at 405/620 nm read at intervals. For calculations, we used data sets where samples incubated without inhibitors had absorbance values comprised between 1 and 1.5. The inhibitor concentration that reduced by 50% the expression of NS3 (IC50) was calculated by fitting the data to the Hill equation, Fraction inhibition=1−(Ai−b)/(A0−b)=[I]^n/([I]^n+[…]) where: • Ai=absorbance value of HBI10 cells supplemented with the indicated inhibitor concentration. • A0=absorbance value of HBI10 cells incubated without inhibitor. • b=absorbance value of Huh-7 cells plated at the same density in the same microtiter plates and incubated without inhibitor. • n=Hill coefficient.
On the technique in general: A replicon is a self-replicating genome or part of one, used to study replication in cells.

For `CCN1CCN(C)C2COc3ccccc3-c3c(C4CCCCC4)c4ccc(cc4n3C2)C(=O)NS(=O)(=O)N(C)CC1` [Compound A3, (7R)-14-cyclohexyl-21-ethyl-18,24-dimethyl-7,8-dihydro-6H-7,11-(epiminoethanoiminoethanoiminothioiminomethano)indolo[1,2-e][1,5]benzoxazocin-15-one 17,17-dioxide], the concentration for half-maximal inhibition (IC50) is below 25 nM.
The same measure, in the same setting: the figure for `CC(C)N1CCN(C)C2COc3ccccc3-c3c(C4CCCCC4)c4ccc(cc4n3C2)C(=O)NS(=O)(=O)N(C)CC1` [Compound A4, (7R)-14-cyclohexyl-21-isopropyl-18,24-dimethyl-7,8-dihydro-6H-7,11-(epiminoethanoiminoethanoiminothioiminomethano)indolo[1,2-e][1,5]benzoxazocin-15-one 17,17-dioxide] is below 25 nM; for `CN1CCN(C)[C@H]2COc3ccccc3-c3c(C4CCCCC4)c4ccc(cc4n3C2)C(=O)NS(=O)(=O)N(CC2CC2)CC1` [Compound A5, (7R)-14-cyclohexyl-18-(cyclopropylmethyl)-21,24-dimethyl-7,8-dihydro-6H-7,11-(epiminoethanoiminoethanoiminothioiminomethano)indolo[1,2-e][1,5]benzoxazocin-15-one 17,17-dioxide] it is below 25 nM.
In the case of `CN1CCN2CCN(CC2)S(=O)(=O)NC(=O)c2ccc3c(C4CCCCC4)c4n(c3c2)C[C@@H]1COc1ccccc1-4` [Compound A6, (20R)-30-cyclohexyl-21-methyl-18-oxa-2-thia-1,3,10,21,24-pentaazahexacyclo[22.2.2.1^5,9.1^8,11.1^10,20.0^12,17]hentriaconta-5(31),6,8,11(30),12,14,16-heptaen-4-one 2,2-dioxide], the IC50 (Hepatitis C virus) is 25 to 150 nM.
For the compound `CN1CCOC2COc3ccccc3-c3c(C4CCCCC4)c4ccc(cc4n3C2)C(=O)NS(=O)(=O)N(C)CC1` [Compound A7, (7S)-14-cyclohexyl-18,21-dimethyl-7,8-dihydro-6H-7,11-(epoxyethanoiminoethanoiminothioiminomethano)indolo[1,2-e][1,5]benzoxazocin-15-one 17,17-dioxide], the IC50 was 25 to 150 nM.
Still for that read-out and setting: the figure for `CN1CCN(C)C2COc3cc(OCc4ccccn4)ccc3-c3c(C4CCCCC4)c4ccc(cc4n3C2)C(=O)NS(=O)(=O)N(C)CC1` [Compound A8, (7R)-14-cyclohexyl-18,21,24-trimethyl-3-(pyridin-2-ylmethoxy)-7,8-dihydro-6H-7,11-(epiminoethanoiminoethanoiminothioiminomethano)indolo[1,2-e][1,5]benzoxazocin-15-one 17,17-dioxide] is below 25 nM; for `CN1CCN(C)CC2Cn3c(c(C4CCCCC4)c4ccc(cc43)C(=O)NS(=O)(=O)N(C)CC1)-c1ccccc1N2C` (centres unmarked) [Compound A9, 13-cyclohexyl-5,17,20,23-tetramethyl-6,7-dihydro-5H-10,6-(methanoiminothioiminoethanoiminoethanoiminomethano)indolo[1,2-d][1,4]benzodiazepin-14-one 16,16-dioxide] it is 25 to 150 nM; for `COc1ccc2c(c1)CC1CCN(C)CCN(C)S(=O)(=O)NC(=O)c3ccc4c(C5CCCCC5)c-2n(c4c3)C1` (centres unmarked) [Compound A10, 13-cyclohexyl-3-methoxy-17,20-dimethyl-6,7-dihydro-5H-6,10-(ethanoiminoethanoiminothioiminomethano)indolo[2,1-a][2]benzazepin-14-one 16,16-dioxide] it is 25 to 150 nM.
Take `CN1CCN(C)C2COc3cc(F)ccc3-c3c(C4CCCCC4)c4ccc(cc4n3C2)C(=O)NS(=O)(=O)N(C)CC1` [Compound A11, (7R)-14-cyclohexyl-3-fluoro-18,21,24-trimethyl-7,8-dihydro-6H-7,11-(epiminoethanoiminoethanoiminothioiminomethano)indolo[1,2-e][1,5]benzoxazocin-15-one 17,17-dioxide]: the IC50 is below 25 nM.
For `CCN1CCN(CCN(C)C)C2COc3cc(F)ccc3-c3c(C4CCCCC4)c4ccc(cc4n3C2)C(=O)NS(=O)(=O)N(C)CC1` [Compound A12, (7R)-14-cyclohexyl-24-[2-(dimethylamino)ethyl]-21-ethyl-3-fluoro-18-methyl-7,8-dihydro-6H-7,11-(epiminoethanoiminoethanoiminothioiminomethano)-indolo[1,2-e][1,5]benzoxazocin-15-one 17,17-dioxide], the IC50 was below 25 nM.
With `CN1CCNCCN(C)S(=O)(=O)NC(=O)c2ccc3c(C4CCCCC4)c4n(c3c2)CC1COc1ccccc1-4` [Compound A15, (7S)-14-cyclohexyl-18,24-dimethyl-7,8-dihydro-6H-7,11-(epiminoethanoiminoethanoiminothioiminomethano)indolo[1,2-e][1,5]benzoxazocin-15-one 17,17-dioxide], the half-inhibitory concentration (IC50) lay in the range of 150 to 500 nM.
For the compound `CN1CCN2CCCC2CO[C@@H]2COc3ccccc3-c3c(C4CCCCC4)c4ccc(cc4n3C2)C(=O)NS1(=O)=O` (stereo partly drawn) [Compound A17, (20S)-31-cyclohexyl-10-methyl-19,22-dioxa-9-thia-1,8,10,13-tetraazahexacyclo[18.9.1.1^2,6.1^3,29.0^13,17.0^23,28]dotriaconta-2(32),3,5,23,25,27,29(31)-heptaen-7-one 9,9-dioxide], for the setting “Hepatitis C virus”, the IC50 lay in the range of 25 to 150 nM.
On to `CN1CCN2CCC(C2)N(C)S(=O)(=O)NC(=O)c2ccc3c(C4CCCCC4)c4n(c3c2)C[C@@H]1COc1ccccc1-4` [Compound A18, (18R)-29-cyclohexyl-10,17-dimethyl-20-oxa-9-thia-1,8,10,14,17-pentaazahexacyclo[16.9.1.1^2,6.1^3,27.1^11,14.0^21,26]hentriaconta-2(31),3,5,21,23,25,27(29)-heptaen-7-one 9,9-dioxide], for which, for the setting “Hepatitis C virus”, the IC50 is below 25 nM.
On to `CCN1CCN(C)[C@H]2COc3c(C)cccc3-c3c(C4CCCCC4)c4ccc(cc4n3C2)C(=O)NS(=O)(=O)N(C)CC1` [Compound A19, (7R)-14-cyclohexyl-21-ethyl-4,18,24-trimethyl-7,8-dihydro-6H-7,11-(epiminoethanoiminoethanoiminothioiminomethano)indolo[1,2-e][1,5]benzoxazocin-15-one 17,17-dioxide], for which the half-inhibitory concentration (IC50) is below 25 nM.
The same measure, in the same setting: the figure for `CN1CCOCCN(C)S(=O)(=O)NC(=O)c2ccc3c(C4CCCCC4)c4n(c3c2)C[C@@H]1COc1ccccc1-4` [Compound A20, (7R)-14-cyclohexyl-18,24-dimethyl-7,8-dihydro-6H-7,11-(epiminoethanooxyethanoiminothioiminomethano)indolo[1,2-e][1,5]benzoxazocin-15-one 17,17-dioxide] is 25 to 150 nM.
As for `CN1[C@H]2CCN(CCN(C)S(=O)(=O)NC(=O)c3ccc4c(C5CCCCC5)c5n(c4c3)C[C@@H]1COc1ccccc1-5)C2` [Compound A21, (16S,18R)-29-cyclohexyl-10,17-dimethyl-20-oxa-9-thia-1,8,10,13,17-pentaazahexacyclo[16.9.1.1^2,6.1^3,27.1^13,16.0^21,26]hentriaconta-2(31),3,5,21,23,25,27(29)-heptaen-7-one 9,9-dioxide], where the note is “Hepatitis C virus”, the 50% inhibitory concentration (IC50) was below 25 nM.
In the case of `CCCc1cccc2c1OC[C@H]1Cn3c-2c(C2CCCCC2)c2ccc(cc23)C(=O)NS(=O)(=O)N(C)CCN(CC)CCN1C` [Compound A22, (7R)-14-cyclohexyl-21-ethyl-18,24-dimethyl-4-propyl-7,8-dihydro-6H-7,11-(epiminoethanoiminoethanoiminothioiminomethano)indolo[1,2-e][1,5]benzoxazocin-15-one 17,17-dioxide], the IC50 lay within 25 to 150 nM.
